Experimental data: patent publication US9370516B2 (Pfizer Inc., priority 2012, dated 2016)
“And” between values parts separate entries of the source, which are not always exact repeats. Identical values can stand only once.

Assays:
[1] = Plasma and brain levels 30 minutes post dosing; assay type: in vivo, rat
Protocol: (§1) Male Wistar Han rats were administered a single dose (1, 10, 50, or 150 mg/kg) of (R)-2-(2-methylimidazo[2,1-b]thiazol-6-yl)-1-(2-(5-(6-methylpyrimidin-4-yl)-2,3-dihydro-1H-inden-1-yl)-2,7-diazaspiro[3.5]nonan-7-yl)ethanone (Example 1) via oral gavage to assess the effects of Example 1 on locomotor activity over a 21 hour period (FIG. 1). Animals were habituated to the locomotor apparatus one hour prior to dosing. The lights were turned off at 4 pm and turned on at 4 am. Animals were dosed at 4 pm. Activity was monitored post-dose for 20 hours. Plasma, brains and CSF were taken from a satellite group of animals at Tmax (30 minutes post dosing).

male rhesus monkeys = experiment: Primate study of sleep duration and food intake after evening dosing; assay type: in vivo, Macaca mulatta
Text: In a primate study, the effect of Example 1 on sleep duration and food intake three hours post evening dosing Example 1 was studied dosing either once a day (QD) or twice a day (BID). Eight healthy adult (5.8 to 9.7 years of age) male rhesus monkeys, (Macaca mulatta, of Indian origin) were used. Animals were studied in parallel. According to a cross-over design, four of the animals received Example 1 (or Vehicle as a control) QD during the first phase of the study and BID during the second phase of the study. A reverse treatment schedule was used for the remaining four animals. When Example 1 was administered QD, the single dose was administered in the evening. Each treatment period lasted 28-30 consecutive days. Vehicle treatment lasted 10-14 days, immediately preceding the phase where Example 1 was administered. Animals were also kept in their sleep/circadian chambers to become familiar with them. Treatment was administered as a liquid solution, dispensed automatically using a timer-controlled pump. Throughout treatment periods, animals were maintained in light-controlled and sound attenuated sleep/circadian chambers, under constant conditions of dim light, in order to determine the intrinsic rhythms of sleep/activity and self-administered food intake. Sleep/activity cycle and sleep duration was documented using continuous on-line actigraphic image analysis technique, as described in Masuda et al., J Biol Rhythms. 2010 October; 25(5):361-71, Intrinsic activity rhythms in Macaca mulatta: their entrainment to light and melatonin. A software algorithm for actigraphic data analysis of sleep versus wakefulness in rhesus monkeys is explained in Zhdanova et al., J Biol Rhythms. 2011 April; 26(2):149-59. Aging of intrinsic circadian rhythms and sleep in a diurnal nonhuman primate, Macaca mulatta. Sleep onset and duration estimates were based on the comparisons between polysomnographic and actigraphic sleep in this species. Each circadian chamber was equipped with an individual touch-screen monitor, connected to an automatic pellet dispenser (ENV-203-1000, Med Associates Inc., St. Albans, Vt.). This allowed for ad libitum around the clock self-administration of 1 g food pellets (Nutritionally complete dustless precision pellets, Bio-Serv, Frenchtown, N.J.) via pressing a moving on-screen target. The time each pellet dispensed was documented. Data analysis was conducted using linear mixed model (SPSS), with the level of significance at p<0.05. Data were presented as group means (standard error of the means (SEM)) for each treatment condition: QD or BID administration of vehicle or Example 1.

patient GHSR1a [2] = target: T1, patient GHSR1a (Homo sapiens, UniProt Q92847)
Text: The assay monitors the ligand-dependent exchange of GDP for GTP. GPCR activation results in an increase in fluorescence as receptor-bound GDP is replaced by Europium-labeled GTP.

patient GHSR1a [3] = target: T1, patient GHSR1a; settings: pre-incubation 8 hours
Text: (§2) The SPA format was utilized for high throughput screening of test compounds and filter binding served for more comprehensive binding characterization. In both formats test compound affinity is expressed as Ki value, defined as the concentration of compound required to decrease [^125I] ghrelin binding by 50% for a specific membrane batch at a given concentration of radioligand.

mouse GHSR1a = mouse GHSR1a (Mus musculus, UniProt Q99P50); experiment: biochemical; settings: Mouse GHS-1aR Filter Ki, pre-incubation 90 minutes
Protocol: (§3) Ghrelin binding assays were performed in a final volume of 100 μl containing […] patient GHSR1a (HEK293 Tetracycline-Inducible cell line expressing the patient growth secretagogue receptor 1a; prepared as membranes) and 50 pM [^125I] ghrelin (Perkin Elmer Life Sciences, NEX-388), plus varying concentrations of test compound or vehicle.
(§4) Briefly, assays were prepared at room temperature in 96-well plates (Costar, 3357) containing 2 μl of test compound in DMSO (or DMSO as vehicle). Assays were initiated by addition of 23 μl assay buffer (50 mM HEPES, 10 mM MgCl2, 0.2% BSA, EDTA-free protease inhibitor tablets—1 tablet/50 ml buffer, pH 7.4), 25 μl 4 mg/ml hGHSR1a membrane and 50 μl of 100 pM [^125I] ghrelin, both in assay buffer.
(§5) The mixture was incubated for 90 minutes at room temperature followed by transfer to a 0.3% PEI-treated, 96-well glass fiber filtration plate (Perkin Elmer, 6005174). The mixture was suctioned dry with vacuum and immediately washed 3 times with 200 μl ice cold 50 mM Tris pH 7.5. Plates were allowed to dry overnight at room temperature and 30 μl Supermix scintillant (Perkin Elmer, 1200-439) is added to each well. The amount of receptor-ligand complex was determined by liquid scintillation counting using a 1450 Microbeta Trilux (Wallac). […]

rat GHSR1a = rat GHSR1a (Rattus norvegicus, UniProt O08725); experiment: biochemical; settings: Rat GHS-1aR Filter Ki, pre-incubation 90 minutes
Protocol: as §3, §4, §5

monkey GHSR1a = target: T2, monkey GHSR1a (Macaca mulatta, UniProt F6Z4B1); experiment: Radioligand binding filtration format assay, monkey GHSR1a; settings: pre-incubation 90 minutes; read-out: Primate GHS-1aR Filter Ki (converted)
T2 construct: monkey (XM_001084886.1)
Protocol: as §3
(§6) Assays were initiated by addition of 23 μl assay buffer (50 mM HEPES, 10 mM MgCl2, 0.2% BSA, EDTA-free protease inhibitor tablets—1 tablet/50 ml buffer, pH 7.4), 25 μl 4 mg/ml hGHSR1a membrane and 50 μl of 100 pM [^125I] ghrelin, both in assay buffer.
(§7) Radioligand binding filtration format assays for dog (NM_001099945.1), monkey (XM_001084886.1), mouse (NM_177330), and rat (NM_032075) GHSR1a (all expressed in unique HEK293 Tetracycline-Inducible cell lines) were performed in an identical manner as described for patient GHSR1a except that the final amount of membrane to be used is as follows: 2 μg dog GHSR, 250 ng monkey GHSR, 200 ng mouse GHSR, or 125 ng rat GHSR.

humans = experiment: Clinical studies B3301001, B3301002, B3301007; assay type: in vivo, human
Protocol: Patients were administered Example 1 as an extemporaneously prepared suspension in B3301001, B3301002, and the IR in B3301007 and as an extemporaneously prepared osmotic capsule (EPOC) in B3301007. […] Dose related increase in heart rate (up to ˜10 beats per minute) as well as attenuation of both ghrelin-induced growth hormone secretion and postprandial glucose were seen after acute dosing.

Male Wistar Han rats = experiment: Locomotor activity after single oral dose; assay type: in vivo, rat
Protocol: as §1

dog GHSR1a = target: T3, dog GHSR1a (Canis lupus familiaris, UniProt A5HKU8); experiment: Radioligand binding filtration format assay, dog GHSR1a; settings: pre-incubation 90 minutes; read-out: Dog GHS-1aR Filter Ki (converted)
T3 construct: dog (NM_001099945.1)
Protocol: as §3, §6, §7

[4] = target: broad panel of receptors, transporters, ion channels, and enzymes; experiment: Selectivity against a broad panel
patient GHSR1a [5] = target: T1, patient GHSR1a; experiment: biochemical; settings: for Ki: Human GHS-1aR Filter Ki
Protocol: as §2
Patient Ghrelin Filter Binding Assay
as §3, §4
The mixture was incubated for 90 minutes at room temperature followed by transfer to a 0.3% PEI-treated, 96-well glass fiber filtration plate (Perkin Elmer, 6005174). The mixture was suctioned dry with vacuum and immediately washed 3 times with 200 μl ice cold 50 mM Tris pH 7.5. Plates were allowed to dry overnight at room temperature and 30 μl Supermix scintillant (Perkin Elmer, 1200-439) is added to each well. The amount of receptor-ligand complex was determined by liquid scintillation counting using a 1450 Microbeta Trilux (Wallac).

[6] = QD and BID groups, N=8 per group, p<0.01
[7] = individual animal, evening QD, throughout the treatment period
[8] = 10 mg/kg oral gavage, 35-65 minutes post dosing
[9] = 50 mg/kg oral gavage, 35-65 minutes post dosing

T1 sequence (Q92847 whole entry): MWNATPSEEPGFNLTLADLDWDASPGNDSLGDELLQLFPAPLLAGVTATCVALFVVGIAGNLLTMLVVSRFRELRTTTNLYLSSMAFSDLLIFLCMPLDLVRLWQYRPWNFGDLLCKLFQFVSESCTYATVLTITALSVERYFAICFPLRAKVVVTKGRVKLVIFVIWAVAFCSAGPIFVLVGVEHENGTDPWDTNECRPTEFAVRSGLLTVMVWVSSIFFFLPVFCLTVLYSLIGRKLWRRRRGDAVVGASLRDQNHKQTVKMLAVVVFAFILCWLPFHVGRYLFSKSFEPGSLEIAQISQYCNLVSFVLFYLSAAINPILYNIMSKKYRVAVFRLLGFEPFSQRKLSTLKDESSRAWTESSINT
T3 sequence (A5HKU8 1-349): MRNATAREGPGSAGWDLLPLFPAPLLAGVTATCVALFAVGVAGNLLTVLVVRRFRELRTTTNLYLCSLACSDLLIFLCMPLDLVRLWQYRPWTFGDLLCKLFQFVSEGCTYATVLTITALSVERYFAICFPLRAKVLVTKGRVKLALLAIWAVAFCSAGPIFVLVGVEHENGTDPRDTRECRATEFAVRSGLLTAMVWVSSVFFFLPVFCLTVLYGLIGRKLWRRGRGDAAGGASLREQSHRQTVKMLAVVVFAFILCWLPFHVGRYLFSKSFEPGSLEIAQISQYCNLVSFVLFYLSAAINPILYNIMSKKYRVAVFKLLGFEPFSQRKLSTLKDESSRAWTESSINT
Chain of mouse GHSR1a (Q99P50 whole entry): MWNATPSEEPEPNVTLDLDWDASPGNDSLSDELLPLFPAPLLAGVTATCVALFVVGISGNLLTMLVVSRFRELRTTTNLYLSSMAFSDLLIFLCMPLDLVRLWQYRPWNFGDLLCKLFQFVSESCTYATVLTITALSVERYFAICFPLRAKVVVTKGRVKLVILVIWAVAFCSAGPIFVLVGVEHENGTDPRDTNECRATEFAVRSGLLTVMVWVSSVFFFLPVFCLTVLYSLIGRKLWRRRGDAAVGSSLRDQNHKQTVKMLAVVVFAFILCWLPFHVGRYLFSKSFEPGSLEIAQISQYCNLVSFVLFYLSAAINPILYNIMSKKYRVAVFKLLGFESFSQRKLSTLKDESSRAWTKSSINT
Chain of rat GHSR1a (O08725 whole entry): as the sequence (Q99P50 whole entry) above, with S30P, S249A counted along it
T2 sequence (F6Z4B1 1-366): as the sequence (Q92847 whole entry) above, with P6A, D20E, Q36R, A59S, V163I counted along it

Cc1cc(-c2ccc3c(c2)CC[C@H]3N2CC3(CCN(C(=O)Cc4cn5cc(C)sc5n4)CC3)C2)ncn1 [Example 1, (R)-2-(2-methylimidazo[2,1-b]thiazol-6-yl)-1-(2-(5-(6-methylpyrimidin-4-yl)-2,3-dihydro-1H-inden-1-yl)-2,7-diazaspiro[3.5]nonan-7-yl)ethanone]
Brain (nM free) ([1]; 1 mg/kg oral): 1.6 nM free
Plasma (nM free) ([1]; 1 mg/kg oral): 18 nM free
Brain (nM free) ([1]; 10 mg/kg oral): 16 nM free
Plasma (nM free) ([1]; 10 mg/kg oral): 184 nM free
Brain (nM free) ([1]; 50 mg/kg oral): 80 nM free
Plasma (nM free) ([1]; 50 mg/kg oral): 856 nM free
Brain (nM free) ([1]; 150 mg/kg oral): 148 nM free
Plasma (nM free) ([1]; 150 mg/kg oral): 1704 nM free
change in food intake within 3 hours of evening administration vs vehicle (male rhesus monkeys; [6]): significant decrease in food intake
change in sleep duration within 3 hours of evening treatment vs vehicle (male rhesus monkeys; [6]): significant increase in sleep duration
food intake soon after administration (male rhesus monkeys; [7]): significantly reduced food intake
sleep latency (male rhesus monkeys; [7]): significantly reduced sleep latency
functionality of the test compound (patient GHSR1a [2]): inverse agonist
Human GHS-1aR SPA Ki (patient GHSR1a [3]): 2.24 ng/mL
Ki (mouse GHSR1a): 7.7 nM
Ki (rat GHSR1a): 3.19 nM and 3.2 nM
Ki (monkey GHSR1a): 1.83 nM
dose related increase in heart rate (humans; after acute dosing): ≤ 10 beats per minute
ghrelin-induced growth hormone secretion (humans; after acute dosing): attenuation
postprandial glucose (humans; after acute dosing): attenuation
safety and tolerability in humans (humans; up to 100 mg BID for 14 days): safe and generally well tolerated
effect on locomotor activity compared to vehicle (Male Wistar Han rats; 1 mg/kg oral gavage, 35-65 minutes post dosing): no biologically or statistically significant effect
decrease in rearing (Male Wistar Han rats; [8]): 56%
decrease in total locomotor activity (Male Wistar Han rats; [8]): 60%
decrease in rearing (Male Wistar Han rats; [9]): 43%
decrease in total locomotor activity (Male Wistar Han rats; [9]): 48%
total activity compared to vehicle control (Male Wistar Han rats; 150 mg/kg oral gavage, 35-65 minutes post dosing): reduction in total activity which was statistically significant
total activity (Male Wistar Han rats; 20 hours post dosing): no statistically or biologically significant reductions in total activity
hyperactivity (Male Wistar Han rats; any dose (1-150 mg/kg)): did not induce hyperactivity
Ki (dog GHSR1a): 3.56 nM and 3.57 nM
IC50 [4]: > 1000 nM
Ki (patient GHSR1a [5]; pre-incubation 90 minutes): 2.49 nM and 2.5 nM
Ki (patient GHSR1a [5]; pre-incubation 24 hours): 1.42 nM
Kd (patient GHSR1a [5]; Human GHS-1aR Filter Motulsky Kd, Equilibrium 4.07 hours): 3.04 nM
Kd (patient GHSR1a [5]; human Kd via Patient Ghrelin Filter Binding Assay): 3 nM
